Experiment [1] deals with Beta Secretase enzyme (BACE) (Homo sapiens, UniProt P56817). Nature of the experiment: In vitro enzymatic BACE FRET (fluorescence resonance energy transfer) assay. It counts as biochemical. Here is the method: In Vitro Enzymatic Bace Fret (Fluorescence Resonance Energy Transfer) Assay (Enzyme Assay Data in the Example Table I)
The assay buffer used in this screen is 0.05 M acetate, pH 4.2, 10% DMSO final, 100 uM genapol (which is a nonionic detergent, below its Critical Micelle Concentration). […] This assay is effectively started by the addition of FRET substrate (50 nM) and the combination is incubated for one hour. The FRET assay is terminated with by addition of Tris buffer, which raises the pH to neutrality, and the fluorescence is determined. The FRET substrate is a peptide with commercially available fluorophore and quencher, on opposite sides of the BACE cleavage site.

Experiment [2] relates to Aβ40 in conditioned medium of cells stably expressing Amyloid Precursor Protein (APP). Nature of the experiment: In vitro BACE cell-based assay (Aβ40 in conditioned medium, sandwich ELISA). Particulars: Homo sapiens. Here is the method: In Vitro BACE Cell-Based Assay
The cell-based assay measures inhibition or reduction of Aβ40 in conditioned medium of test compound treated cells expressing amyloid precursor protein.
Cells stably expressing Amyloid Precursor Protein (APP) were plated at a density of 40K cells/well in 96 well plates (Costar). The cells were cultivated for 24 hours at 37° C. and 5% CO2 in DMEM supplemented with 10% FBS. The test compounds were then added to cells in 10-point dose response concentrations with the starting concentration being either 100 μM or 10 μM. The compounds were diluted from stock solutions in DMSO and the final DMSO concentration of the test compounds on cells was 0.1%. […] The IC50 of the compound was calculated from the percent of control or percent inhibition of Aβ 40 as a function of the concentration of the test compound.
The sandwich ELISA to detect Aβ 40 was performed in 96 well microtiter plates, which were pre-treated with goat anti-rabbit IgG (Pierce). The capture and detecting antibody pair that were used to detect Aβ 40 from cell supernatants were affinity purified pAb40 (Biosource) and biotinylated 6E10 (Signet Labs Inc.), respectively. The optimal concentration for the pAb40 antibody was 3 μg/ml in Superblock/TBS (Pierce) that was supplemented with 0.05% Tween 20 (Sigma).
Cellular supernatants were incubated with the capture antibody for 3 h at 4° C., followed by 3 wash steps in TBS-tween (0.05%). The detecting antibody incubation was for 2 h at 4° C., again followed by the wash steps as described previously. The final readout of the ELISA is Time-Resolved Fluorescence (counts per minute) using Delfia reagents Streptavidin-Europium and Enhancement solutions (Perkin Elmer) and the Victor 2 multilabel counter (Perkin Elmer).

The mark [3] stands for this setting: average IC50, enzyme assay, read-out: BACE 1 FRET assay.
The mark [4] stands for this setting: HEK293, average IC50, read-out: HEK cell assay.
The mark [5] stands for this setting: HEK293, average IC50, HEK cells, read-out: HEK cell assay.

Like-named read-outs stand apart in the source and are kept apart here. A value given as a limit tells only on which side of the number the result lay.

Chain of Beta Secretase enzyme (BACE) (P56817 46-501, species assumed): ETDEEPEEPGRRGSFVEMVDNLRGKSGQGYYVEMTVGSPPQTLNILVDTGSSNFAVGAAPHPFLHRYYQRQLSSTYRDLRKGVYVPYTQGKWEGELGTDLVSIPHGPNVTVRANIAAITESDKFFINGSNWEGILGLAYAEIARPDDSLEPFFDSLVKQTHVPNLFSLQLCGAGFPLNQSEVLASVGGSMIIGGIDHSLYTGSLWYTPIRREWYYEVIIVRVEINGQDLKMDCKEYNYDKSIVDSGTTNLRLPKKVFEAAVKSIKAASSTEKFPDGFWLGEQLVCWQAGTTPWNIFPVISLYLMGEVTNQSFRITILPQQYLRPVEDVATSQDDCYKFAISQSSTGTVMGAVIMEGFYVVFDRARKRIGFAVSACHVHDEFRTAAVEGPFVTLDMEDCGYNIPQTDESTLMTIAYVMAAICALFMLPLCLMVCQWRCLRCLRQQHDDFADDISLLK

Consider `CC1(C#Cc2cc3c(cn2)Oc2ccc(-c4ccc(F)nc4)cc2[C@@]32COC(N)=N2)COC1` [Example 156, (5S)-7-(6-fluoro-3-pyridinyl)-3-((3-methyl-3-oxetanyl)ethynyl)spiro[chromeno[2,3-c]pyridine-5,4′-[1,3]oxazol]-2′-amine], for which the IC50 is 0.0109 µM in experiment [1] (setting [3]) and 0.0459 µM in experiment [2] (setting [4]). For `NC1=N[C@@]2(CS1)c1cc(-c3c(F)ccnc3F)ccc1Oc1cnc(-c3ccnc(F)c3)cc12` [Example 1023, (5S)-7-(2,4-difluoro-3-pyridinyl)-3-(2-fluoro-4-pyridinyl)spiro[chromeno[2,3-c]pyridine-5,4′-[1,3]thiazol]-2′-amine] the same measures were 0.0004 µM and 0.018 µM. As for `NC1=N[C@@]2(CO1)c1cc(-c3cccnc3F)ccc1Oc1cnc(/C=C/C3CC3)cc12` [Example 401, (5S)-3-((E)-2-cyclopropylethenyl)-7-(2-fluoro-3-pyridinyl)spiro[chromeno[2,3-c]pyridine-5,4′-[1,3]oxazol]-2′-amine], the IC50 is 0.0044 µM in experiment [1] (setting [3]) and 0.0449 µM in experiment [2] (setting [5]). For the compound `COc1ccc(-c2cc3c(cn2)Oc2ccc(-c4cccnc4F)cc2[C@@]32COC(N)=N2)cc1F` [Example 533, (5S)-3-(3-fluoro-4-methoxyphenyl)-7-(2-fluoro-3-pyridinyl)spiro[chromeno[2,3-c]pyridine-5,4′-[1,3]oxazol]-2′-amine], the IC50 in experiment [1] (BACE 1 FRET assay (uM)) amounted to 0.0014 µM; in experiment [2] (HEK293, read-out: HEK cell assay (uM), average IC50, HEK cells) it was 0.0235 µM. Take `NC1=N[C@]2(CO1)c1cc(-c3cncc(F)c3)c(F)cc1Oc1ncc(C3=CCOCC3)cc12` [Example 648, (5R)-3-(3,6-dihydro-2H-pyran-4-yl)-8-fluoro-7-(5-fluoro-3-pyridinyl)spiro[chromeno[2,3-b]pyridine-5,4′-[1,3]oxazol]-2′-amine]: the IC50 came out at 0.33 µM in experiment [1] (setting [3]) and 2.79 µM in experiment [2] (setting [5]). On to `NC1=N[C@]2(CO1)c1cc(-c3cccnc3F)ccc1Oc1cc(OC(F)(F)F)c(Br)cc12` [Example 988, (4R)-2′-bromo-7′-(2-fluoro-3-pyridinyl)-3′-(trifluoromethoxy)spiro[1,3-oxazole-4,9′-xanthen]-2-amine], for which the IC50 in experiment [1] (setting [3]) was 40 µM; in experiment [2] (setting [4]), ≥ 10 µM. The matching figures for `NC1=N[C@@]2(CO1)c1cc(-c3cncc(C#CCO)c3)ccc1Oc1cnc(C3=CCCOC3)cc12` [Example 827, 3-(5-((5S)-2′-amino-3-(5,6-dihydro-2H-pyran-3-yl)spiro[chromeno[2,3-c]pyridine-5,4′-[1,3]oxazol]-7-yl)-3-pyridinyl)-2-propyn-1-ol]: 0.0005 µM and 0.002 µM. For `Cn1cc(-c2cc3c(cc2F)Oc2ccc(-c4cccc(Cl)c4)cc2[C@@]32COC(N)=N2)cn1` [Example 313, (4S)-7′-(3-chlorophenyl)-3′-fluoro-2′-(1-methyl-1H-pyrazol-4-yl)spiro[1,3-oxazole-4,9′-xanthen]-2-amine] the same measures were 0.0018 µM and 0.0789 µM. Regarding `COc1cncc(-c2ccc3c(c2)[C@@]2(COC(N)=N2)c2cc(C4=CCOCC4)cnc2O3)c1` [Example 459, (5S)-3-(3,6-dihydro-2H-pyran-4-yl)-7-(5-methoxy-3-pyridinyl)spiro[chromeno[2,3-b]pyridine-5,4′-[1,3]oxazol]-2′-amine], the IC50 was 0.0022 µM in experiment [1] (setting [3]) and 0.0062 µM in experiment [2] (setting [5]). For `CC1(C#Cc2cnc3c(c2)[C@]2(COC(N)=N2)c2cc(-c4cncc(F)c4)ccc2O3)COC1` [Example 458, (5S)-7-(5-fluoro-3-pyridinyl)-3-((3-methyl-3-oxetanyl)ethynyl)spiro[chromeno[2,3-b]pyridine-5,4′-[1,3]oxazol]-2′-amine] the same measures were 0.0012 µM and 0.0051 µM. As to `NC1=N[C@@]2(CO1)c1cc(-c3cccnc3N3CCC(F)(F)CC3)ccc1Oc1ncc(N3CCC(F)(F)CC3)cc12` [Example 477, (5S)-3-(4,4-difluoro-1-piperidinyl)-7-(2-(4,4-difluoro-1-piperidinyl)-3-pyridinyl)spiro[chromeno[2,3-b]pyridine-5,4′-[1,3]oxazol]-2′-amine], the IC50 came to 0.33 µM in experiment [1] (setting [3]) and 1.2 µM in experiment [2] (setting [5]). As for `NC1=N[C@@]2(CS1)c1cc(-c3cnccc3F)ccc1Oc1ncc(C3=CCCOC3)cc12` [Example 773, (5S)-3-(5,6-dihydro-2H-pyran-3-yl)-7-(4-fluoro-3-pyridinyl)spiro[chromeno[2,3-b]pyridine-5,4′-[1,3]thiazol]-2′-amine], the results for the IC50 in experiment [1] (setting [3]) and in experiment [2] (setting [4]) were 0.0008 µM and 0.014 µM, respectively. As to `Cc1cc(-c2ccc3c(c2)[C@@]2(COC(N)=N2)c2cc(-c4cccnc4)ncc2O3)cnc1F` [Example 230, (5S)-7-(6-fluoro-5-methyl-3-pyridinyl)-3-(3-pyridinyl)spiro[chromeno[2,3-c]pyridine-5,4′-[1,3]oxazol]-2′-amine], the IC50 in experiment [1] (setting [3]) was 0.0081 µM; in experiment [2] (setting [4]) it was 0.0363 µM.

`COCC1SC(N)=N[C@]12c1cc(-c3cccnc3F)ccc1Oc1c(F)cc(OC)cc12` (stereo partly drawn) [Example 1091, (4S)-4′-fluoro-7′-(2-fluoro-3-pyridinyl)-2′-methoxy-5-(methoxymethyl)spiro[1,3-thiazole-4,9′-xanthen]-2-amine]: the IC50 in experiment [1] (setting [3]) was 5.07 µM; in experiment [2] (setting [4]), > 10 µM. Take `N#Cc1cccc(-c2ccc3c(c2)[C@@]2(COC(N)=N2)c2cc(N4CC[C@@H](F)C4)nc(F)c2O3)c1` [Example 919, 3-((5S)-2′-amino-1-fluoro-3-((3R)-3-fluoro-1-pyrrolidinyl)spiro[chromeno[2,3-c]pyridine-5,4′-[1,3]oxazol]-7-yl)benzonitrile]: the figures for the IC50 in experiment [1] (setting [3]) and in experiment [2] (setting [5]) were 0.0004 µM and 0.006 µM, respectively. As to `NC1=NC2(CO1)c1cc(-c3cccnc3F)ccc1Oc1c2cc(C#Cc2cccnc2)nc1F` (stereo not shown) [Example 735, 1-fluoro-7-(2-fluoro-3-pyridinyl)-3-(3-pyridinylethynyl)spiro[chromeno[2,3-c]pyridine-5,4′-[1,3]oxazol]-2′-amine], the IC50 stood at 0.0009 µM in experiment [1] (setting [3]) and 0.131 µM in experiment [2] (setting [4]). With `NC1=N[C@@]2(CO1)c1cc(-c3cccnc3F)ccc1Oc1c(F)cc(-n3cccn3)cc12` [Example 691, (4S)-4′-fluoro-7′-(2-fluoro-3-pyridinyl)-2′-(1H-pyrazol-1-yl)spiro[1,3-oxazole-4,9′-xanthen]-2-amine], the IC50 was found to be 0.002 µM in experiment [1] (setting [3]) and 0.063 µM in experiment [2] (setting [5]). Consider `CC1(C)C=C(c2cnc3c(c2)[C@]2(CSC(N)=N2)c2cc(-c4ccc(F)c(C#N)c4)ccc2O3)CCO1` [Example 784, 5-((5S)-2′-amino-3-(6,6-dimethyl-3,6-dihydro-2H-pyran-4-yl)spiro[chromeno[2,3-b]pyridine-5,4′-[1,3]thiazol]-7-yl)-2-fluorobenzonitrile], for which the IC50 in experiment [1] (setting [3]) came to 0.0014 µM; in experiment [2] (setting [4]), 0.015 µM.

As to `Cc1cc(-c2cc(F)c3c(c2)[C@]2(COC(N)=N2)c2cc(-c4cccnc4F)ccc2O3)cc(=O)o1` [Example 200, 4-((4S)-2-amino-4′-fluoro-7′-(2-fluoro-3-pyridinyl)spiro[1,3-oxazole-4,9′-xanthen]-2′-yl)-6-methyl-2H-pyran-2-one], the IC50 came to 0.0006 µM in experiment [1] (setting [3]) and 0.0085 µM in experiment [2] (setting [4]).

In the case of `CC1(C#Cc2cnc3c(c2)[C@]2(COC(N)=N2)c2c(ccc(-c4ccc(F)nc4)c2F)O3)COC1` [Example 342, (5R)-6-fluoro-7-(6-fluoro-3-pyridinyl)-3-((3-methyl-3-oxetanyl)ethynyl)spiro[chromeno[2,3-b]pyridine-5,4′-[1,3]oxazol]-2′-amine], the IC50 is 0.0024 µM in experiment [1] (setting [3]) and 0.016 µM in experiment [2] (setting [4]).

For `NC1=N[C@@]2(CS1)c1cc(-c3cccnc3)ccc1Oc1c(F)cc(C3=CCCOC3)cc12` [Example 795, (4S)-2′-(5,6-dihydro-2H-pyran-3-yl)-4′-fluoro-7′-(3-pyridinyl)spiro[1,3-thiazole-4,9′-xanthen]-2-amine], the IC50 stood at 0.0005 µM in experiment [1] (setting [3]) and 0.01 µM in experiment [2] (setting [4]). `NC1=N[C@]2(CO1)c1cc(-c3cccnc3F)ccc1Oc1c2cc(C2=CCCOC2)nc1F` [Example 908, (5R)-3-(5,6-dihydro-2H-pyran-3-yl)-1-fluoro-7-(2-fluoro-3-pyridinyl)spiro[chromeno[2,3-c]pyridine-5,4′-[1,3]oxazol]-2′-amine]: the IC50 in experiment [2] (setting [5]) came to 0.609 µM.

(Values after US8883782B2, “Spiro-tetracyclic ring compounds as beta-secretase modulators and methods of use” (Amgen Inc., priority 2010, dated 2014).)
